# Values joined by “and” are separate entries in the source; they are usually repeats but may differ in a detail not shown here. Identical values can stand only once. Like-named read-outs stand apart in the source and are kept apart here.
# Assays:
# [1] = Half life of NONOates (diazeniumdiolates) at 37° C., pH 7.4; format: physicochemical
# Source text: Diazeniumdiolates, more commonly referred to as NONOates, have been extremely useful in the investigation of the biological effects of nitric oxide (NO) and related nitrogen oxides. […] FIG. 55 illustrates an exemplary chemical reaction.
# coronaries of pigs = settings: delivered intrapericardially; cited from earlier work
# rats with MI = settings: cited from earlier work
# mice with aortic banding = settings: mouse, in vivo; cited from earlier work
# [2] = oral, cited from earlier work
# aldosterone receptors = target: T1, aldosterone receptors (Homo sapiens, UniProt P08235); settings: cited from earlier work
# T1 construct: host or cells: heart failure patients (in vivo)
# T1 sequence (P08235 1-984): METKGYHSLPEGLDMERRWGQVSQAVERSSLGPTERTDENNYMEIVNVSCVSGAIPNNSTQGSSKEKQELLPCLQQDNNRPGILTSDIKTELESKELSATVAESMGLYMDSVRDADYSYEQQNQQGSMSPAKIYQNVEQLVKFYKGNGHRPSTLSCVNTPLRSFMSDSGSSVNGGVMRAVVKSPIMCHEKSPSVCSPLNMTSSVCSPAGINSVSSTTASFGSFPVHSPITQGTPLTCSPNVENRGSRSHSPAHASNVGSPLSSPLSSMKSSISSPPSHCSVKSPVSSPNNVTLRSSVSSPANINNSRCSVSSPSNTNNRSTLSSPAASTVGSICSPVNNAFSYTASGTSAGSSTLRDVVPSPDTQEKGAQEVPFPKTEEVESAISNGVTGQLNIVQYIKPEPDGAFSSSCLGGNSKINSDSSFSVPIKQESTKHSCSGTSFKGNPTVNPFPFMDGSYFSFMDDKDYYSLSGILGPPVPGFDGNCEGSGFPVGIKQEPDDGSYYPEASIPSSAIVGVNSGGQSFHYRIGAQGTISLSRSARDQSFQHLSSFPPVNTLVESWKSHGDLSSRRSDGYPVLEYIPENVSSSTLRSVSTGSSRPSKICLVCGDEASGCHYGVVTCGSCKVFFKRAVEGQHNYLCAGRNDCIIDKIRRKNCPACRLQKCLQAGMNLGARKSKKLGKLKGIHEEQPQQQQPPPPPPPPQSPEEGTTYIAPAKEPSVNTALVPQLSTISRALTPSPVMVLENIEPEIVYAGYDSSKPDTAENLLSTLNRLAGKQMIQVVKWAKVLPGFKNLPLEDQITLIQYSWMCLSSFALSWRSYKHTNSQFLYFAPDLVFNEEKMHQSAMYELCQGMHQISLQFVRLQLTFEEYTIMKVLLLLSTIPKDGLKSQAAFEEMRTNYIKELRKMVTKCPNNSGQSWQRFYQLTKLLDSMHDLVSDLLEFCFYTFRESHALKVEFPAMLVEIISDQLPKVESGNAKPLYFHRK
# [3] = cited from earlier work
smiles,measurement,setting,value
"CN(C)[N+]([O-])=N[O-].[Na+] [Compound 1, Sodium 1-(N,N-Dimthylanimo)diazen-1-ium-1,2-dilate]","Half Life 37° C., pH 7.4",[1],0.2 min
"CN(C)/[N+]([O-])=N/[O-].[Na+] [Compound 2, Sodium (Z)-1-(N,N-Dimthylanimo)diazen-1-ium-1,2-dilate]","Half Life 37° C., pH 7.4",[1],2 min
NCCCN(CCCN)/[N+]([O-])=N/O [Compound 4],"Half Life 37° C., pH 7.4",[1],3 hrs
"NCCN(CCN)[N+]([O-])=NO [Compound 5, 1-[N-(2-Aminoethyl)-N-(2-ammonioethyl)amino]diazen-1-ium-1,2-diolate]",half-life,[1]; buffer,20 h
"COCON=[N+]([O-])N1CCNCC1 [Compound 7, O^2-Methozymethyl 1-(Piperazin-1-yl)diazen-1-ium-1,2-diolate]","Half Life 37° C., pH 7.4",[1],17 days
CC(=O)O[C@H]1C(=O)[C@@]2(C)[C@H]([C@H](OC(=O)c3ccccc3)[C@]3(O)C[C@H](OC(=O)[C@H](O)[C@@H](NC(=O)c4ccccc4)c4ccccc4)C(C)=C1C3(C)C)[C@]1(OC(C)=O)CO[C@@H]1C[C@@H]2O [Paclitaxel],neointimal proliferation in the coronaries in response to balloon injury,coronaries of pigs,inhibit neointimal proliferation
CO[C@H]1C[C@@H]2CC[C@@H](C)[C@@](O)(O2)C(=O)C(=O)N2CCCC[C@H]2C(=O)O[C@H]([C@H](C)C[C@@H]2CC[C@@H](OCCO)[C@H](OC)C2)CC(=O)[C@H](C)/C=C(\C)[C@@H](O)[C@@H](OC)C(=O)[C@H](C)C[C@H](C)/C=C/C=C/C=C/1C [everolimus],EF,rats with MI; compared to untreated MI rats,significant increase
same,LV end-diastolic diameter,rats with MI; compared to untreated MI rats,significant reduction
same,reduction of myocyte size,"rats with MI; rat, in vivo",33%
CO[C@H]1C[C@@H]2CC[C@@H](C)[C@@](O)(O2)C(=O)C(=O)N2CCCC[C@H]2C(=O)O[C@H]([C@H](C)C[C@@H]2CC[C@@H](O)[C@H](OC)C2)CC(=O)[C@H](C)/C=C(\C)[C@@H](O)[C@@H](OC)C(=O)[C@H](C)C[C@H](C)/C=C/C=C/C=C/1C [sirolimus],"body weight, lung weight, or liver weight",mice with aortic banding,without affecting
same,patients who experienced side effects (mild to severe),[2]; 2 mg daily,43%
same,patients who experienced side effects (mild to severe),[2]; 5 mg daily,66%
CC(=O)S[C@@H]1CC2=CC(=O)CC[C@]2(C)[C@H]2CC[C@@]3(C)[C@@H](CC[C@@]34CCC(=O)O4)[C@H]12 [spironolactone],blocking the aldosterone receptors and decreasing atrial natriuretic peptide concentrations,aldosterone receptors; dose of 12.5 to 25 mg daily,effective
same,incidence of serious hyperkalemia,"aldosterone receptors; high-risk heart failure patients, with ACE inhibitor",low incidence
same,risk of both morbidity and death,aldosterone receptors; high-risk heart failure patients,significantly reduced
same,daily dose at which serious hyperkalemia occurs most frequently,aldosterone receptors; in vivo,≥ 50 mg
same,blood pressure decrease,[3]; doses above 150 mg,no additional decrease
same,incidence of gynecomastia,[3]; doses of 50 mg or less,8.9%
same,incidence of gynecomastia,[3]; doses of 150 mg or higher,52.2%
same,blood pressure decrease,[3]; doses of 25 to 50 mg,5.3% and 8.5%
same,blood pressure decrease,[3]; doses of 75 to 100 mg,12.4% and 12.2%
